These results are taken from BindingDB's records for doi:10.1016/j.chembiol.2008.07.013 (University of Connecticut, 2008).

The assay concerns the target T1, Dihydrofolate reductase (Candida glabrata (strain ATCC 2001 / BCRC 20586 / JCM 3761 / NBRC 0622 / NRRL Y-65 / CBS 138), UniProt Q6FPH0).
T1 sequence (Q6FPH0 whole entry): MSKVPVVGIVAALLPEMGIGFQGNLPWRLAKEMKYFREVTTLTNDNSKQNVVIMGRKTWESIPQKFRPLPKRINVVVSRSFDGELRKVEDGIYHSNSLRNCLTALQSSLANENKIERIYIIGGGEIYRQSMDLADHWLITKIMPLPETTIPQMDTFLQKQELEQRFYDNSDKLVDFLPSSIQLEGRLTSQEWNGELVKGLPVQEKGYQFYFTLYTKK
Description: Enzyme Inhibition Assay. The settings on record: 25 °C. An excerpt:
Enzyme inhibition assay using CgDHFR and hDHFR performed at 25 degree Celsius by monitoring the rate of enzyme-dependent NADPH oxidation at an absorbance of 340 nm over several minutes.

Usually IC50 stands for the concentration that gives 50% inhibition. A high value points to a need for much substance. Molecule `CCc1nc(N)nc(N)c1C#CCc1cc(OC)ccc1OC` [5-[3-(2,5-dimethoxyphenyl)prop-1-yn-1-yl]-6-ethylpyrimidine-2,4-diamine] yielded an IC50 of 0.0082 µM.

`COc1ccc(OC)c(CC#Cc2cnc(N)nc2N)c1` [5-[3-(2,5-dimethoxyphenyl)prop-1-yn-1-yl]pyrimidine-2,4-diamine] came in with an IC50 of 0.021 µM.

Molecule `COc1cc(CC#Cc2cnc(N)nc2N)cc(OC)c1OC` [JMC517532 Compound 3] came in with a half-inhibitory concentration (IC50) of 0.022 µM.

`COc1cc([C@@H](C#Cc2c(C)nc(N)nc2N)OC)cc(OC)c1OC` [JMC517532 Compound 10] yielded a concentration for half-maximal inhibition (IC50) of 0.03 µM.

In the case of `COc1ccc(OC)c(CC#Cc2c(C)nc(N)nc2N)c1` [Propargyl-linked, 10], the midpoint of inhibition, the IC50, lay at 0.032 µM.

In turn, `COc1cc(C(C)C#Cc2c(C)nc(N)nc2N)cc(OC)c1OC` (configuration not stated) [Propargyl-substituted antifolate, 8] displayed a half-inhibitory concentration (IC50) of 0.025 µM.

Take `COc1cc([C@@H](O)C#Cc2c(C)nc(N)nc2N)cc(OC)c1OC` [Propargyl-substituted antifolate, 9]: inhibition was half-maximal at 0.039 µM (IC50).
